Experimental data from patent publication US9957247B2, “SecA inhibitors and methods of making and using thereof” (Georgia State University Research Foundation, Inc., priority 2012, dated 2018).
Values after ≈ are worked out from the molar mass of the structure shown. Read-outs that look alike come from different tables or passages of the source.

Legend:
F1F0-proton ATPase = F1F0-proton ATPase (Escherichia coli, UniProt P0ABB0+P0ABB4); assay: Proton ATPase activity, reconstituted liposomes; type: biochemical, E. coli
Experimental: The N-terminal catalytic domain of SecA from E. coli (EcN68) was overexpressed from pIMBB28. EcN68 was used for the early and initial screening because it has higher intrinsic activity and is more sensitive to inhibitors. […] SecA proteins were purified as previously described. F1F0-proton ATPase-enriched membrane of E. coli strain KY7485 was prepared as described in the literature. F1F0-proton ATPase was partially purified by sucrose-gradient fractionation and then reconstituted into liposomes by dialysis. Non-radiolabeled and [^35S]-labeled proOmpA were purified as previously described. SecA-depleted BA13 membrane vesicles were prepared as described in the literature,[32] and washed with 6M urea to reduce endogenous ATPase activity.

EcSecA [1] = type: biochemical, E. coli
EcSecA N68 = EcSecA N68 (Escherichia coli, UniProt P10408); assay: biochemical; type: biochemical, E. coli
EcSecA [2] = biological target: T1, EcSecA (Escherichia coli, UniProt P10408); settings: read-out: IC50, in vitro protein translocation of proOmpA; Example 1
Target sequence in this assay (P0AG99 whole entry): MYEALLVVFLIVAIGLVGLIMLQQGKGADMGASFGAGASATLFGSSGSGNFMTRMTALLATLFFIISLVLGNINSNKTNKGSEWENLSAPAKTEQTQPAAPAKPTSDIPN
Target sequence in this assay (P10408 whole entry): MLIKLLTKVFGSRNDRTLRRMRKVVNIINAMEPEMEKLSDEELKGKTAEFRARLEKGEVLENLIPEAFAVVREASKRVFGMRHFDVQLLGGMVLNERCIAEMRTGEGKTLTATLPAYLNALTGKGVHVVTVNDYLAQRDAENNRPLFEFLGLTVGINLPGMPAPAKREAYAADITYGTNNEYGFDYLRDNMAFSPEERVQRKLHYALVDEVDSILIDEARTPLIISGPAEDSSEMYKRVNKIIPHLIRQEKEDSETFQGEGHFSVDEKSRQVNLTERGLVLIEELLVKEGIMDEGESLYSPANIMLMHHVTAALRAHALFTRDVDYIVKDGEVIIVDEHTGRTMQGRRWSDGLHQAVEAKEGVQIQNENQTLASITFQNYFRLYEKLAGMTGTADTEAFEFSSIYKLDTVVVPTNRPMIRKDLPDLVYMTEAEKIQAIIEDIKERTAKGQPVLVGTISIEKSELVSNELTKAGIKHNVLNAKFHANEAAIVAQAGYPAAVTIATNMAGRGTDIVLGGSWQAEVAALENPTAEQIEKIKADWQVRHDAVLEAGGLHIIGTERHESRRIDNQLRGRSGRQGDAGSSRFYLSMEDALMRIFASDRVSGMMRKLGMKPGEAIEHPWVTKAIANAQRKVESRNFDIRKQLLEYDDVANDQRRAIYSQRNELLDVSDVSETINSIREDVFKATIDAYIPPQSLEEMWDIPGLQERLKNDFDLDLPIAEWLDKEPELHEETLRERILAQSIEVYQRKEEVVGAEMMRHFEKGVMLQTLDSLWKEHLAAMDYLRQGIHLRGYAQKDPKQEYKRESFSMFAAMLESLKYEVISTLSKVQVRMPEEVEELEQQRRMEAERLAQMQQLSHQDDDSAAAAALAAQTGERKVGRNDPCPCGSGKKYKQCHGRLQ
Target sequence in this assay (P0AGA2 whole entry, further chain): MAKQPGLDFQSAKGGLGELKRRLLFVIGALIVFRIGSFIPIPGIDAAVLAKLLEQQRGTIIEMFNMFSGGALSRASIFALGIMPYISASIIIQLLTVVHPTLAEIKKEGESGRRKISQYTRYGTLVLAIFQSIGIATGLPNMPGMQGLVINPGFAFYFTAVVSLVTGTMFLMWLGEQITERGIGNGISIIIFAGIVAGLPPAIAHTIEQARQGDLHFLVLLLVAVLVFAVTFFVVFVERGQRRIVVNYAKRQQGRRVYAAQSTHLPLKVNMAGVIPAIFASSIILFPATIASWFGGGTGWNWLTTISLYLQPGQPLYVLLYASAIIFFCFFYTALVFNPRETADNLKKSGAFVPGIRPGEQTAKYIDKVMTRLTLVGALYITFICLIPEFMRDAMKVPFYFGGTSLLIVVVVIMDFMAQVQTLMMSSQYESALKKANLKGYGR
Target sequence in this assay (P0AG96 whole entry, further chain): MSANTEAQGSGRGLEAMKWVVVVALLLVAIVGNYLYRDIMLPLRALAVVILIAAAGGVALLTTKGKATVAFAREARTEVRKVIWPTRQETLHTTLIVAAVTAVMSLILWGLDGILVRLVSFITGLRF

EcSecA [3] = biological target: T1, EcSecA; settings: read-out: IC50, translocation ATPase activity of EcSecA; Example 1
Target sequence in this assay (P0AG99 whole entry): as the sequence (P0AG99 whole entry) above
Target sequence in this assay (P10408 whole entry): as the sequence (P10408 whole entry) above
Target sequence in this assay (P0AGA2 whole entry, further chain): as the sequence (P0AGA2 whole entry, further chain) above
Target sequence in this assay (P0AG96 whole entry, further chain): as the sequence (P0AG96 whole entry, further chain) above

BsSecA [4] = biological target: T2, BsSecA (Bacillus subtilis, UniProt P28366); assay: biochemical; type: biochemical, B. subtilis; settings: for Effect on the intrinsic ATPase activity of BsSecA: Example 1
EcSecA [5] = biological target: T1, EcSecA; settings: read-out: IC50, membrane ATPase activity of EcSecA; Example 1
Target sequence in this assay (P0AG99 whole entry): as the sequence (P0AG99 whole entry) above
Target sequence in this assay (P10408 whole entry): as the sequence (P10408 whole entry) above
Target sequence in this assay (P0AGA2 whole entry, further chain): as the sequence (P0AGA2 whole entry, further chain) above
Target sequence in this assay (P0AG96 whole entry, further chain): as the sequence (P0AG96 whole entry, further chain) above

BsSecA [6] = biological target: T2, BsSecA; assay: cell-based; parameters: species or system B. subtilis
EcSecA [7] = tested on: EcSecA
B. subtilis 168 [8] = assay: Bacteriostatic effect, liquid microdilution, B. subtilis 168; type: cell-based; settings: Bacillus subtilis, Example 2
EcSecA [9] = biological target: T1, EcSecA; assay: cell-based
Target sequence in this assay (P10408 whole entry): as the sequence (P10408 whole entry) above

[10] = tested on: SecA (S. pyogenes, S. aureus, and E. coli); assay: Oocyte assay, inhibition of SecA; settings: read-out: IC50, inhibiting SecA in the oocyte assay
B. subtilis 168 [11] = assay: Bactericidal effect assay, B. subtilis 168; type: cell-based
SaSecA2 = biological target: T3, SaSecA2 (Staphylococcus aureus, UniProt Q2FUW6); assay: ATPase activity assay (malachite green), SaSecA2
T3 sequence (Q2FUW6 1-796): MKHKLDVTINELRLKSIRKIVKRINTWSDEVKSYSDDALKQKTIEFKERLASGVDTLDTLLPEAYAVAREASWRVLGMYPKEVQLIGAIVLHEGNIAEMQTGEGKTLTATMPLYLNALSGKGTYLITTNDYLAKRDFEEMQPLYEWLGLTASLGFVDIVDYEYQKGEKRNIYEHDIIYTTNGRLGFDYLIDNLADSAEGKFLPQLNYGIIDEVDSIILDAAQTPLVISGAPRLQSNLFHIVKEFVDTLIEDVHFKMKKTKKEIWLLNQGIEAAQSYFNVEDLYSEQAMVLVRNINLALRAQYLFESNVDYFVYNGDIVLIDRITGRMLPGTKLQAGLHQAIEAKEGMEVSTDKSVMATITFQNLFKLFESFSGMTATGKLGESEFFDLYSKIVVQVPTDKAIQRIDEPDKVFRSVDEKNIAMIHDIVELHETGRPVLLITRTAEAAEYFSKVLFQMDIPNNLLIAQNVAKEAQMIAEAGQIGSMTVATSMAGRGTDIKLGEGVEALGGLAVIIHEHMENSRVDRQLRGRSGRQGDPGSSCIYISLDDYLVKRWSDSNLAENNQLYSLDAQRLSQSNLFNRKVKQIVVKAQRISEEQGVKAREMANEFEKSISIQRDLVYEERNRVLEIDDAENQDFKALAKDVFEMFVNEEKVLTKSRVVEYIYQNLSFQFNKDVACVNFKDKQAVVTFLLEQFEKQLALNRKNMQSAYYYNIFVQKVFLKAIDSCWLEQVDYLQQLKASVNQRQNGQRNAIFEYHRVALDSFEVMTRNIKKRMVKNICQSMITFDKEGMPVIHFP

PaSecA = PaSecA (Pseudomonas aeruginosa, UniProt Q9LCT3); assay: cell-based; type: cell-based
S. aureus Mu3 = assay: Bacteriostatic effect, S. aureus Mu3; settings: Staphylococcus aureus, MU3, read-out: Bacteriostatic effect, MIC, S. aureus Mu3
S. aureus 8325-4 = assay: Bacteriostatic effect, S. aureus 8325-4 (WT); settings: Staphylococcus aureus, 83254, read-out: Bacteriostatic effect, MIC, WT 8325-4
S. aureus 6538 = assay: Bacteriostatic effect, S. aureus 6538; settings: Staphylococcus aureus, 6538, read-out: Bacteriostatic effect, MIC, S. aureus 6538
S. aureus Mu50 = assay: Bacteriostatic effect, S. aureus Mu50; settings: Staphylococcus aureus
BsSecA2 = settings: read-out: IC50, Intrinsic ATPase, BsSecA2; Table 1
S. aureus N315 = assay: Bacteriostatic effect, S. aureus N315; settings: Staphylococcus aureus, N315, read-out: Bacteriostatic effect, MIC, S. aureus N315
[12] = Bactericidal effect in the dark and under light (photooxidation); type: cell-based; settings: for Effect of light on the bactericidal effect: under light versus dark
B. anthracis Sterne = assay: microbe, parasite or virus in culture; type: cell-based; settings: Bacillus anthracis, read-out: Bacteriostatic MIC95, B. anthracis Sterne
SpSecA = SpSecA (Streptococcus pyogenes, UniProt Q99Y96); type: cell-based; settings: read-out: IC50, Ion Channel activity, SpSecA
S. pyogenes, MGAS5005 = assay: MIC95, S. pyogenes MGAS5005; type: cell-based; settings: Streptococcus pyogenes, MGAS5005, read-out: MIC95, S. pyogenes MGAS5005
[13] = tested on: S. aureus deletion strains (NorA−, MepA−) and strains (NorA++, MepA++) with over-expressed efflux pumps; assay: Antimicrobial effect with deletion or over expression of efflux pumps in S. aureus
[14] = tested on: secretion of α-hemolysin, enterotoxin B and TSST-1 by S. aureus Mu50; type: cell-based
EcSecA [15] = biological target: T1, EcSecA; assay: biochemical; settings: IC50, Translocation ATPase, Table 1
Target sequence in this assay (P0AG99 whole entry): as the sequence (P0AG99 whole entry) above
Target sequence in this assay (P10408 whole entry): as the sequence (P10408 whole entry) above
Target sequence in this assay (P0AGA2 whole entry, further chain): as the sequence (P0AGA2 whole entry, further chain) above
Target sequence in this assay (P0AG96 whole entry, further chain): as the sequence (P0AG96 whole entry, further chain) above

EcSecA [16] = biological target: T1, EcSecA; assay: biochemical; settings: IC50, Protein Translocation, Table 1
Target sequence in this assay (P0AG99 whole entry): as the sequence (P0AG99 whole entry) above
Target sequence in this assay (P10408 whole entry): as the sequence (P10408 whole entry) above
Target sequence in this assay (P0AGA2 whole entry, further chain): as the sequence (P0AGA2 whole entry, further chain) above
Target sequence in this assay (P0AG96 whole entry, further chain): as the sequence (P0AG96 whole entry, further chain) above

BaSecA1 = BaSecA1 (Bacillus anthracis, UniProt Q81X26); assay: cell-based; settings: IC50, Ion Channel activity, BGaSecA 1
EcSecA [17] = biological target: T1, EcSecA; assay: biochemical; parameters: species or system E. coli; settings: IC50, Intrinsic ATPase, Table 1, full-length EcSecA
Target sequence in this assay (P10408 whole entry): as the sequence (P10408 whole entry) above

MtbSecA = MtbSecA (Mycobacterium tuberculosis, UniProt P9WGP5); assay: cell-based
MsSecA = MsSecA (Mycolicibacterium smegmatis, UniProt P71533); assay: SecA-liposomes ion-channel activity in oocytes, MsSecA; type: cell-based; settings: Table 1
[18] = IC50, ATPase activity, SaSecA2, Table 7
[19] = IC50, Intrinsic ATPase, SaSecA2, Table 1
[20] = IC50, Ion Channel activity, PASecA, Table 1
[21] = wild type, NorA−/MepA− and NorA++/MepA++ strains

T2 sequence (P28366 whole entry): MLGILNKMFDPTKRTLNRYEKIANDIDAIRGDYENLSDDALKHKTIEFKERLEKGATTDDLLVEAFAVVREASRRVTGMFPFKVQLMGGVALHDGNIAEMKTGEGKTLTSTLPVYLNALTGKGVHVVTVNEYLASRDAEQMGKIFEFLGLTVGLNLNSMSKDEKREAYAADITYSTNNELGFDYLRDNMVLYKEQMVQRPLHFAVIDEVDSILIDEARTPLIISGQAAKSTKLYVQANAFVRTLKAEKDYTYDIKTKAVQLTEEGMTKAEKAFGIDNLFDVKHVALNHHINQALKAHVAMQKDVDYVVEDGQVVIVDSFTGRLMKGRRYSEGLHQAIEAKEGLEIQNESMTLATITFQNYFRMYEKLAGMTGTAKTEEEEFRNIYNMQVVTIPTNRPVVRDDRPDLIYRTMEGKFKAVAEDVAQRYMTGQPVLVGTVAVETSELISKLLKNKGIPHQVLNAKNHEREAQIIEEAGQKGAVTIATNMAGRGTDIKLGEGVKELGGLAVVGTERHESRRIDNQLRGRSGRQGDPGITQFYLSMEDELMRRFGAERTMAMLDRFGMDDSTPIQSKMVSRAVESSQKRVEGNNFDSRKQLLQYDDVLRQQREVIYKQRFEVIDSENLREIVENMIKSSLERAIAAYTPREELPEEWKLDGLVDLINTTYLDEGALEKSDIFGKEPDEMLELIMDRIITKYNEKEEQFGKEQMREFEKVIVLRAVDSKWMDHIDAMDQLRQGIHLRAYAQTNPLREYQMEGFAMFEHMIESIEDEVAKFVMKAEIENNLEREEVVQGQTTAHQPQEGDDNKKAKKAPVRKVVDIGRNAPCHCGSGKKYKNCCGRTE
Sequence of PaSecA (Q9LCT3 whole entry): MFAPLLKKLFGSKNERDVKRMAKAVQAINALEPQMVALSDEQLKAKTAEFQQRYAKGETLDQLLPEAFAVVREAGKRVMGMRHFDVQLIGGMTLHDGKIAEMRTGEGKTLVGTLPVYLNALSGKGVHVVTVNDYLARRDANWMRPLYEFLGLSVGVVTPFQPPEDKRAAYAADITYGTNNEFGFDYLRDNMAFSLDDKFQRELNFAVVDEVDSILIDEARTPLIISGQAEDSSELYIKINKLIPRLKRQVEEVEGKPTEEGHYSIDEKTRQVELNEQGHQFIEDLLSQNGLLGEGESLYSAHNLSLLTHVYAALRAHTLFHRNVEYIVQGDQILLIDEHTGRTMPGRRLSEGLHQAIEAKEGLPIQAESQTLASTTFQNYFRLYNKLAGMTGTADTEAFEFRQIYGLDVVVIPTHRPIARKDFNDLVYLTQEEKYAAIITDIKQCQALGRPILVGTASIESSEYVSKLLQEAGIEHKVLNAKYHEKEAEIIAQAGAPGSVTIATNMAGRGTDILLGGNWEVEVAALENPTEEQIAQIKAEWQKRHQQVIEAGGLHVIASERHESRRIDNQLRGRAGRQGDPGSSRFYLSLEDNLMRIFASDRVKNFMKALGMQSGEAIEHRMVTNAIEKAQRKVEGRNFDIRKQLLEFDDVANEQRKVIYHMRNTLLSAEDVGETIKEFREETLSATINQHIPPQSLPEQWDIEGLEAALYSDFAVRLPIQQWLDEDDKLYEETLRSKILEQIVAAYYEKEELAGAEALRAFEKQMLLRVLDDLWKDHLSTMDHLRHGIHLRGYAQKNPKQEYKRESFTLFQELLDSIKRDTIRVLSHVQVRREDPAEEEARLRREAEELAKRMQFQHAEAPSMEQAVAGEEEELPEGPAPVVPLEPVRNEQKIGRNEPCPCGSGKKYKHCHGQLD

## O.O=C([O-])c1ccccc1-c1c2cc(I)c(=O)c(I)c-2oc2c(I)c([O-])c(I)cc12.[Na+].[Na+] [EB, Erythrosin B]
F1F0-proton ATPase; Example 1, read-out: IC50 against F1F0-proton ATPase
  IC50: ~30 µM
EcSecA [1]; at low ATP concentrations
  Mode of inhibition against ATP: competitive inhibitors
EcSecA N68; Example 1, fluorescein analogs, read-out: IC50, EcN68 SecA ATPase (unregulated ATPase)
  IC50: 2 µM
EcSecA [2]
  IC50: 4 µM
EcSecA [3]
  IC50: 10 to 20 µM
BsSecA [4]
  Effect on the intrinsic ATPase activity of BsSecA: inhibitory effects
EcSecA [5]
  IC50: 10 to 20 µM

## Oc1ccc2c(c1)Oc1cc(O)ccc1C2C1CCCCC1 [Compound 22d, 9-Cyclohexyl-9H-xanthene-3,6-diol]
BsSecA [6]; Ion channel, IC50, BsSecA, Table 5
  IC50: 6.6 µM
EcSecA [7]
  Potency against EcSecA over BsSecA, channel activity: about 2 fold
B. subtilis 168 [8]
  MIC: 22 µM (≈ 6.52 µg/mL)
EcSecA [9]
  IC50: 2.8 µM

## O=C(O)c1c(Cl)c(Cl)c(Cl)c(Cl)c1-c1c2cc(I)c(=O)c(I)c-2oc2c(I)c(O)c(I)cc12 [RB, Rose Bengal]
[10]
  IC50: 0.4 µM
F1F0-proton ATPase
  IC50: ~10 µM
B. subtilis 168 [11]; 20 μM, one hour, FIG. 2
  Bactericidal effect, kill of B. subtilis 168: little effect
B. subtilis 168 [11]; 100 μM, one-hour treatment
  Decrease of cell survival (CFU): ~8 log units
EcSecA [1]; at high ATP concentrations
  Mode of inhibition against ATP: competitive inhibition
SaSecA2; [18]
  IC50: 2.5 µM
SaSecA2; [19]
  IC50: 1 µM
PaSecA; FIG. 3C
  Inhibition kinetics, channel activity, PaSecA-liposomes: non-competitive inhibition
PaSecA; [20]
  IC50: 0.3 µM
PaSecA; Rose Bengal IC50, channel activity, PaSecA, +SecYEG + SecDF•C
  IC50: 2 µM
PaSecA; Rose Bengal IC50, channel activity, PaSecA, BA13, BA13 (first value of BA13/Re-13)
  IC50: 5.1 µM
PaSecA; Rose Bengal IC50, channel activity, PaSecA, Liposome + SecYEG
  IC50: 1.1 µM
PaSecA; Rose Bengal IC50, channel activity, PaSecA, Liposomes
  IC50: 0.3 µM
PaSecA; Rose Bengal IC50, channel activity, PaSecA, Re-13, Re-13 (second value of BA13/Re-13)
  IC50: 0.3 µM
S. aureus Mu3
  MIC: 38.2 µg/mL (≈ 39.2 µM)
S. aureus 8325-4
  MIC: 13.2 µg/mL (≈ 13.6 µM)
S. aureus 6538
  MIC: 38.2 µg/mL (≈ 39.2 µM)
S. aureus Mu50; MU50, read-out: Bacteriostatic MIC95, S. aureus Mu50
  MIC: 40.7 µg/mL
S. aureus Mu50; MU50, read-out: Bacteriostatic effect MIC, S. aureus Mu50
  MIC: 50.8 µg/mL
S. aureus Mu50; MU50, read-out: Bacteriostatic effect, MIC, S. aureus Mu50
  MIC: 50.8 µg/mL
BsSecA2
  IC50: 15 µM
S. aureus N315
  MIC: 19.1 µg/mL (≈ 19.6 µM)
[12]; dark
  Bactericidal effect in the dark: little bactericidal effect
[12]
  Effect of light on the bactericidal effect: dramatically increased
B. subtilis 168 [8]
  MIC: 100 µM (≈ 97.4 µg/mL)
B. anthracis Sterne
  MIC: 12.2 µg/mL (≈ 12.5 µM)
SpSecA; Table 1
  IC50: 0.9 µM
BsSecA [4]
  Effect on the intrinsic ATPase activity of BsSecA: inhibitory effects
S. pyogenes, MGAS5005
  MIC: 6.25 µM (≈ 6.09 µg/mL)

## Oc1ccc2c(c1)Oc1cc(O)ccc1C2C1CCCC1 [SCA-41]
BsSecA [6]; IC50, Ion Channel activity, BsSecA, Table 1
  IC50: 3 µM
SaSecA2; [18]
  IC50: 32.5 µM
SaSecA2; [19]
  IC50: 6 µM
[13]
  Change of MIC on overexpression or deletion of NorA or MepA: did not significantly change
[13]; [21]
  Bactericidal (killing) effect with over expression of efflux pumps: not attenuated
  MIC (bacteriostatic) with over expression of efflux pumps: did not increase
[14]
  Amount of α-hemolysin, enterotoxin B, and TSST-1 in the supernatant: significantly decreased
PaSecA; [20]
  IC50: 3.6 µM
EcSecA [15]
  IC50: 15 µM
S. aureus Mu3
  MIC: 14.1 µg/mL (≈ 49.9 µM)
S. aureus 8325-4
  MIC: 11.8 µg/mL (≈ 41.8 µM)
EcSecA N68
  IC50: 8 µM
S. aureus 6538
  MIC: 10.6 µg/mL (≈ 37.5 µM)
EcSecA [16]
  IC50: 55 µM
BaSecA1
  IC50: 3.8 µM
S. aureus Mu50; MU50, read-out: Bacteriostatic MIC95, S. aureus Mu50, Table 2
  MIC: 1.7 µg/mL
S. aureus Mu50; MU50, read-out: Bacteriostatic effect MIC, S. aureus Mu50, Table 10 and Example 4
  MIC: 8.8 µg/mL
S. aureus Mu50; MU50, read-out: Bacteriostatic effect, MIC, S. aureus Mu50, Table 8
  MIC: 8.8 µg/mL
S. aureus Mu50; MU50, read-out: MIC95 against drug resistant S. aureus Mu50
  MIC: 1.7 µM
BsSecA2
  IC50: 30 µM
EcSecA [17]
  IC50: 30 µM
S. aureus N315
  MIC: 14.1 µg/mL (≈ 49.9 µM)
[12]
  Effect of light on the bactericidal effect: not affected by light
MtbSecA
  IC50: 3.2 µM
MsSecA
  IC50: 3.5 µM
B. anthracis Sterne
  MIC: 1.1 µg/mL (≈ 3.9 µM)
SpSecA
  IC50: 3 µM
EcSecA [9]
  IC50: 3.4 µM
BsSecA [4]
  IC50: 30 µM
